Data as given in US7756643B2, “Method for determining the biological effect and/or activity of at least one drug, chemical substances and/or pharmaceutical composition based on their effect on the methylation status of DNA” (Epigenomics AG, priority 2001, dated 2010).
Where no end group is shown, it is not given here.

What was measured:
CpGs of the Fas-L gene = test: Peptide library screening: methylation status of CpGs in a T-cell line; format: cell-based; conditions: 10 days, versus untreated control
Procedure: A peptide library was prepared in a 96-well culture plate which contained overlapping peptide fragments derived from the peptide sequence of human serum albumine (HSA). As positive controls, each of vasoactive intestinal peptide (VIP) and pituitary adenylate cyclase-activating polypeptide (PACAP) was added in one of the wells.
A T-cell line (example?) was incubated together with the peptides and VIP or PACAP. After 10 days, the cells of the VIP/PACAP and HSA peptide treated as well as untreated control cell line cultures were collected by centrifugation and the chromosomal DNA was prepared using QIAamp DNA Mini Kit as recommended by the manufacturer (Quiagen, Hilden, Germany).
Subsequently, the chromosomal DNAs were bisulphite treated as published, for example, according to Olek et al. 6 different multiplex PCR reactions were performed on the 3 bisulphite DNA samples (untreated control, HSA and VIP/PACAP treated samples) using Cy5-labelled primer. The products of the methylation specific PCR reactions performed on the same DNA samples were combined. These complex mixtures of 64 PCR products derived from the three DNA samples were comparatively hybridised onto oligo micro arrays representing 256 CpG and the methylation statuses of the CpGs were analysed according to a method described in WO 99/28498.

T cells = conditions: through down-regulation of Fas ligand (FasL); cited from earlier work

| Substance | methylation status of CpGs of the Fas-L gene (CpGs of the Fas-L gene) | protection of T cells from activation-induced cell death (T cells) |
| --- | --- | --- |
| vasoactive intestinal peptide (HSDAVFTDNYTRLRKQMAVKKYLNSILN; ends and bridges not checked; UniProt P01282 125-152, looked up) [VIP, positive control peptide] | significantly changed | protect T cells from activation-induced cell death |
| pituitary adenylate cyclase-activating polypeptide (HSDGIFTDSYSRYRKQMAVKKYLAAVLGKRYKQRVKNK; ends and bridges not checked; UniProt P18509 132-169, looked up) [PACAP, positive control peptide] | significantly changed | protect T cells from activation-induced cell death |
